Results as given in article PMC7926352, “Synthesis, Characterization and In Vitro Evaluation of Novel 5-Ene-thiazolo[3,2-b][1,2,4]triazole-6(5H)-ones as Possible Anticancer Agents” (Molecules, 2021).
Like-named read-outs stand apart in the source and are kept apart here.

Assays:
[1] = system: panel of approximately sixty human tumor cell lines; test: NCI-60 human tumor cell lines screen (SRB), full panel; type: cell-based; conditions: for GI50: read-out: GI50, Total MG_MID; for Positive Cytostatic Effect: ratio of number of cell lines with percent growth from 0 to 50 to total number of cell lines
Description: Compounds 2a, 2c–f, 2h–l, 3, 5e, 5f were selected for antitumor activity which was performed according to the standard protocols of National Cancer Institute (NCI, Bethesda, MD, USA) Developmental Therapeutic Program (DTP). At the prescreening stage, the compounds were evaluated for antitumor activity at the concentration of 10 µM against a panel of approximately sixty cancer cell lines representing different types of cancer including leukemia, melanoma, lung, colon, CNS, ovarian, renal, prostate and breast cancers.
Among them, three compounds (2d, 2h, 2i) presented excellent cytotoxic and four derivatives (2d, 2h, 2i, 2k) cytostatic properties in one or more cell lines when applied at a concentration of 10 µM. […] The outcomes were calculated and presented in the form of three response parameters (GI50, TGI and LC50) for each cell line via growth percentage inhibition curves. […]
The primary anticancer assay was performed on a panel of approximately sixty human tumor cell lines derived from nine neoplastic diseases (leukemia, melanoma, lung, colon, CNS, ovarian, renal, prostate, and breast cancers), in accordance with the protocol of the National Cancer Institute Drug Evaluation Branch (Bethesda, MD, USA). Tested compounds were added to the culture at a single concentration (10^−5 M) and the cultures were incubated for 48 h. End-point determinations were made with a protein-binding dye, sulforhodamine B (SRB). Results for each tested compound were reported as the percentage of the growth of the treated cells when compared to the untreated control cells. The percentage of the growth was evaluated spectrophotometrically versus controls not treated with test agents. […] Using absorbance measurements [time zero (Tz), control growth in the absence of drug (C), and test growth in the presence of the drug (Ti)], the percentage growth was calculated for each drug concentration. Percentage growth inhibition was calculated as:[(Ti − Tz)/[…]] × 100(1) for concentrations for which Ti ≥ Tz, [(Ti − Tz)/Tz] × 100 for concentrations for which Ti < Tz. Dose-response parameters (GI50, TGI) were calculated for each compound. Growth inhibition of 50% (GI50) was calculated from [(Ti − Tz)/(C − Tz)] × 100 = 50, which is the drug concentration resulting in a 50% lower net protein increase in the treated cells (measured by SRB staining) as compared to the net protein increase seen in the control cells. The drug concentration resulting in total growth inhibition (TGI) was calculated from Ti = Tz. Values were calculated for each of these parameters if the level of activity was reached; however, if the effect was not reached or was excessive, the value for that parameter was expressed as more or less than the maximum or minimum concentration tested. The lowest values were obtained with the most sensitive cell lines. Compounds having GI50 values ≤ 100 μM were declared to be active. The selectivity index (SI) calculated by dividing the full panel MG_MID (full-panel mean-graph midpoint) (μM) of the compounds 2h and 2i by their individual subpanel MG_MID of a cell line (μM) was considered as a measure of compounds’ selectivity. Ratios between 3 and 6 mean moderate selectivity, ratios greater than 6 indicate high selectivity toward the corresponding cell line, while compounds not meeting either of these criteria are rated nonselective.

[2] = 60 cell lines assay in one dose, 10 μM, 48 h

Q: Which results are given for O=C(COc1ccc(Cl)cc1/C=c1\sc2ncnn2c1=O)Nc1ccc(Cl)cc1 [Compound 2h, (Z)-2-(4-Chloro-2-((6-oxothiazolo[3,2-b][1,2,4]triazol-5(6H)-ylidene)methyl)phenoxy)-N-(4-chlorophenyl)acetamide]?
A: GI50 (SR; Homo sapiens): 1.38 µM; CC50 (SR; Homo sapiens, read-out: LC50): 17.4 µM; TGI (SR; Leukemia): 4.07 µM; GI50 (SK-MEL-5; Homo sapiens, SK-MEL-5): 3.23 µM; CC50 (SK-MEL-5; Homo sapiens, SK-MEL-5, read-out: LC50): 38 µM; TGI (SK-MEL-5; SK-MEL-5, Melanoma): 14.79 µM; TGI (786-0; 786-0, Renal Cancer): 15.84 µM; GI50 (786-0; Homo sapiens, 786-0): 4.16 µM; CC50 (786-0; Homo sapiens, 786-0, read-out: LC50): 39.8 µM; GI50 (OVCAR-8; Homo sapiens, OVCAR-8): 3.16 µM; CC50 (OVCAR-8; Homo sapiens, OVCAR-8, read-out: LC50): 41.7 µM; TGI (OVCAR-8; OVCAR-8, Ovarian Cancer): 12.88 µM; GI50 (TK-10; Homo sapiens, TK-10): 7.58 µM; CC50 (TK-10; Homo sapiens, TK-10, read-out: LC50): 35.5 µM; TGI (TK-10; TK-10, Renal Cancer): 20.41 µM; GI50 (M14; Homo sapiens, M14): 8.31 µM; CC50 (M14; Homo sapiens, M14, read-out: LC50): 45.7 µM; TGI (M14; M14, Melanoma): 20.89 µM; GI50 (PC-3; Homo sapiens, PC-3): 3.8 µM; CC50 (PC-3; Homo sapiens, PC-3, read-out: LC50): 45.7 µM; TGI (PC-3; PC-3, Prostate Cancer): 16.21 µM; GI50 (LOX IMVI; Homo sapiens): 2.63 µM; CC50 (LOX IMVI; Homo sapiens, read-out: LC50): 33.1 µM; TGI (LOX IMVI; Melanoma): 11.22 µM; GI50 (NCI-H522; Homo sapiens, NCI-H522): 3.16 µM; CC50 (NCI-H522; Homo sapiens, NCI-H522, read-out: LC50): 38 µM; TGI (NCI-H522; NCI-H522, NSCLC): 9.99 µM; activity at 10 µM ([1]; Homo sapiens, 60 cell lines assay in one dose, 10 μM, 48 h, read-out: Mean Growth, %): 29%; activity at 10 µM ([1]; Homo sapiens, 60 cell lines assay in one dose, 10 μM, 48 h, read-out: Range of Growth, %): -48 to 122%; GI50 ([1]; Homo sapiens, full panel average): 3.54 µM; CC50 ([1]; Homo sapiens, full panel average, read-out: LC50, Total MG_MID): 37.1 µM; TGI, Total MG_MID ([1]; full panel average): 12.88 µM; Positive Cytostatic Effect ([1]; one dose, 10 μM): 30/57; Positive Cytotoxic Effect ([1]; one dose, 10 μM, ratio of number of cell lines with percent growth of <0 to total number of cell lines): 12/57; TGI (HT29; HT29, Colon cancer): 15.13 µM; GI50 (HT29; Homo sapiens, HT-29): 4.67 µM; CC50 (HT29; Homo sapiens, HT-29, read-out: LC50): 38.9 µM; GI50 (ACHN; Homo sapiens): 12.6 µM; CC50 (ACHN; Homo sapiens, read-out: LC50): 50.1 µM; TGI (ACHN; Renal Cancer): 25.11 µM; GI50 (SK-MEL-2; Homo sapiens, SK-MEL-2): 3.98 µM; CC50 (SK-MEL-2; Homo sapiens, SK-MEL-2, read-out: LC50): 38.9 µM; TGI (SK-MEL-2; SK-MEL-2, Melanoma): 13.80 µM; GI50 (RPMI-8226; Homo sapiens, RPMI-8226): 1.69 µM; CC50 (RPMI-8226; Homo sapiens, RPMI-8226, read-out: LC50): 26.9 µM; TGI (RPMI-8226; RPMI-8226, Leukemia): 4.89 µM; TGI (HCT-15; HCT-15, Colon cancer): 21.37 µM; GI50 (HCT-15; Homo sapiens, HCT-15): 9.33 µM; CC50 (HCT-15; Homo sapiens, HCT-15, read-out: LC50): 45.7 µM; GI50 (MCF7; Homo sapiens, MCF7): 790 nM; CC50 (MCF7; Homo sapiens, MCF7, read-out: LC50): 19.5 µM; TGI (MCF7; MCF7, Breast Cancer): 4.07 µM; GI50 (U251; Homo sapiens, U-251): 4.07 µM; CC50 (U251; Homo sapiens, U-251, read-out: LC50): 38 µM; TGI (U251; U251, CNS Cancer): 14.45 µM; GI50 (MALME-3M; Homo sapiens, Malme-3M): 7.94 µM; CC50 (MALME-3M; Homo sapiens, Malme-3M, read-out: LC50): 45.7 µM; TGI (MALME-3M; MALME-3M, Melanoma): 20.89 µM; GI50 (OVCAR-5; Homo sapiens, OVCAR-5): 11.2 µM; CC50 (OVCAR-5; Homo sapiens, OVCAR-5, read-out: LC50): 47.9 µM; TGI (OVCAR-5; OVCAR-5, Ovarian Cancer): 23.44 µM

Q: What does the source list for “Ethyl(Z)-4-(3-(4-chloro-2-((6-oxothiazolo[3,2-b][1,2,4]triazol-5(6H)-ylidene)methyl)phenyl)propanamido)benzoate [Compound 2i]”?
A: GI50 (SR; Leukemia): 11 µM; TGI (SR; Leukemia): 79.43 µM; GI50 (SK-MEL-5; SK-MEL-5, Melanoma): 10.5 µM; TGI (SK-MEL-5; SK-MEL-5, Melanoma): 21.87 µM; GI50 (786-0; 786-0, Renal Cancer): 11.2 µM; TGI (786-0; 786-0, Renal Cancer): 23.98 µM; GI50 (OVCAR-8; OVCAR-8, Ovarian Cancer): 13.5 µM; TGI (OVCAR-8; OVCAR-8, Ovarian Cancer): 33.88 µM; GI50 (TK-10; TK-10, Renal Cancer): 16.2 µM; TGI (TK-10; TK-10, Renal Cancer): 29.51 µM; GI50 (M14; M14, Melanoma): 12.6 µM; TGI (M14; M14, Melanoma): 27.54 µM; GI50 (PC-3; PC-3, Prostate Cancer): 11.2 µM; TGI (PC-3; PC-3, Prostate Cancer): 38.01 µM; GI50 (LOX IMVI; Melanoma): 5.62 µM; TGI (LOX IMVI; Melanoma): 18.19 µM; GI50 (NCI-H522; NCI-H522, NSCLC): 11.7 µM; TGI (NCI-H522; NCI-H522, NSCLC): 28.84 µM; Mean Growth, % [1, 2]: 61.05%; Range of Growth, % [1, 2]: −22.54 to 122.94%; TGI, Total MG_MID ([1]; full panel average): 28.18 µM; GI50 ([1]; full panel average): 11 µM; Positive Cytostatic Effect ([1]; one dose, 10 μM): 17/58; GI50 (HT29; HT29, Colon cancer): 12 µM; TGI (HT29; HT29, Colon cancer): 24.54 µM; GI50 (ACHN; Renal Cancer): 15.5 µM; TGI (ACHN; Renal Cancer): 28.84 µM; GI50 (SK-MEL-2; SK-MEL-2, Melanoma): 14.5 µM; TGI (SK-MEL-2; SK-MEL-2, Melanoma): 33.11 µM; GI50 (RPMI-8226; RPMI-8226, Leukemia): 5.37 µM; TGI (RPMI-8226; RPMI-8226, Leukemia): 25.70 µM; GI50 (HCT-15; HCT-15, Colon cancer): 13.8 µM; TGI (HCT-15; HCT-15, Colon cancer): 27.54 µM; GI50 (MCF7; MCF7, Breast Cancer): 5120 nM; TGI (MCF7; MCF7, Breast Cancer): 19.05 µM; GI50 (U251; U251, CNS Cancer): 6.6 µM; TGI (U251; U251, CNS Cancer): 19.05 µM; GI50 (MALME-3M; MALME-3M, Melanoma): 14.8 µM; TGI (MALME-3M; MALME-3M, Melanoma): 28.18 µM; GI50 (OVCAR-5; OVCAR-5, Ovarian Cancer): 15.5 µM; TGI (OVCAR-5; OVCAR-5, Ovarian Cancer): 30.19 µM
